Laboratory results as given in US20100048710A1, “Methods and Compositions for Modulating Muscle Fat in Livestock” (priority 2006, published 2010).
“Also recorded” adds a separate entry of the source.

Columns and labels:
Format in all cases: cell-based
[1] = test system: Heterogeneous IM preadipocytes; assay: GPDH activity in heterogeneous bovine IM preadipocytes, IBU, aspirin or indomethacin for 12 days (Example 5)
Method: (§1) Preadipocytes from IM and SC adipose tissue were isolated using a modification of Forest et al., 1987, Exp. Cell Res. 168:218-232. Cells were seeded at a density of 4,160 cells/cm^2 in 35 mm cell culture wells in DMEM with 5.5 mM glucose, supplemented with 100 units/ml penicillin G, 0.1 mg/ml streptomycin sulfate, 0.25 μg/ml amphotericin B, 0.05 mg/ml gentamicin, 33 μM biotin, 17 μM pantothenate, 200 μM ascorbate, 1 mM octanoate, and 10% fetal bovine serum. The cells were grown in a 37° C./5% CO2 incubator. Growth media was replaced every two days until the cells reached confluency (approximately 4 days), at which point the cells were washed twice with phosphate buffered saline (PBS) and differentiation treatments were applied. The differentiation medium consisted of DMEM with 5.5 mM glucose, 100 units/ml penicillin G, 0.1 mg/ml streptomycin sulfate, 0.25 μg/ml amphotericin B, 0.05 mg/ml gentamicin, 33 μM biotin, 17 μM pantothenate, 200 μM ascorbate, 280 nM bovine insulin, and 5 μl/ml bovine serum lipids (Ex-Cyte, Serologicals Corp., Norcross, Ga.). After 48 hours of differentiation media exposure, the cells were washed twice with PBS and differentiation media was replaced every two days for 10 days. Glycerol-3-phosphate dehydrogenase (GPDH) activity was quantified biochemically by measuring GPDH enzyme activity using a modification of a previously published method (Adams et al., J. Clin. Invest. 100:3149-3153). […] Media was changed every two days as previously described until day 12. Adipogenesis was quantitated by measuring GPDH activity. Data were analyzed using the mixed model procedure of SAS (SAS, Cary, N.C.). In all experiments, pooled cells from two wells of a 6 well (35 mm) plate were considered the experimental unit. When main effects were significant (P<0.05), differences between means were evaluated utilizing Tukey's multiple comparison test. […] To satisfy the conditions of normality and homogeneity of variance, GPDH data were loge transformed in Example 2, and GPDH data were square root transformed in Example 3.

[2] = test system: Heterogeneous SC preadipocytes; assay: GPDH activity in heterogeneous bovine SC preadipocytes, IBU, aspirin or indomethacin for 12 days (Example 5); conditions: for GPDH activity versus control: P<0.001
Method: as §1

[3] = test system: bovine preadipocytes isolated from subcutaneous (SC) adipose tissue; assay: GPDH activity in bovine SC preadipocytes, 48 h exposure to DEX and IBU (Example 3, FIG. 2); conditions: IBU for 48 hours with 25 nM DEX
Method: (§6) The cells were grown in a 37° C./5% CO2 incubator. Growth media was replaced every two days until the cells reached confluency (approximately 4 days), at which point the cells were washed twice with phosphate buffered saline (PBS) and differentiation treatments were applied. The differentiation medium consisted of DMEM with 5.5 mM glucose, 100 units/ml penicillin G, 0.1 mg/ml streptomycin sulfate, 0.25 μg/ml amphotericin B, 0.05 mg/ml gentamicin, 33 μM biotin, 17 μM pantothenate, 200 μM ascorbate, 280 nM bovine insulin, and 5 μl/ml bovine serum lipids (Ex-Cyte, Serologicals Corp., Norcross, Ga.). After 48 hours of differentiation media exposure, the cells were washed twice with PBS and differentiation media was replaced every two days for 10 days. […] After treatment for 48 hours, media was changed as previously described until day 10. Cells from two beef steers were used, and duplicates of each steer treatment were done. Adipogenesis was quantitated by measuring GPDH activity. Data were analyzed using the mixed model procedure of SAS (SAS, Cary, N.C.). In all experiments, pooled cells from two wells of a 6 well (35 mm) plate were considered the experimental unit. When main effects were significant (P<0.05), differences between means were evaluated utilizing Tukey's multiple comparison test.

[4] = test system: bovine heterogeneous preadipocyte cultures from subcutaneous (SC) adipose tissue; assay: GPDH activity in heterogeneous bovine SC preadipocytes, 12 day exposure with DEX (Example 4, FIG. 3)
Method: (§2) Preadipocytes from IM and SC adipose tissue were isolated using a modification of Forest et al., 1987, Exp. Cell Res. 168:218-232. Cells were seeded at a density of 4,160 cells/cm^2 in 35 mm cell culture wells in DMEM with 5.5 mM glucose, supplemented with 100 units/ml penicillin G, 0.1 mg/ml streptomycin sulfate, 0.25 μg/ml amphotericin B, 0.05 mg/ml gentamicin, 33 μM biotin, 17 μM pantothenate, 200 μM ascorbate, 1 mM octanoate, and 10% fetal bovine serum. The cells were grown in a 37° C./5% CO2 incubator. Growth media was replaced every two days until the cells reached confluency (approximately 4 days), at which point the cells were washed twice with phosphate buffered saline (PBS) and differentiation treatments were applied. […]
(§3) Glycerol-3-phosphate dehydrogenase (GPDH) activity was quantified biochemically by measuring GPDH enzyme activity using a modification of a previously published method (Adams et al., J. Clin. Invest. 100:3149-3153).
(§4) Media was changed every two days as previously described until day 12. Adipogenesis was quantitated by measuring GPDH activity.
(§5) Data were analyzed using the mixed model procedure of SAS (SAS, Cary, N.C.). […] When main effects were significant (P<0.05), differences between means were evaluated utilizing Tukey's multiple comparison test. […]

[5] = test system: bovine preadipocytes isolated from intramuscular (IM) adipose tissue; assay: GPDH activity in bovine IM preadipocytes, 48 h exposure to DEX and IBU (Example 3, FIG. 2); conditions: 48 hours with 25 nM DEX
Method: as §6

[6] = test system: bovine heterogeneous preadipocyte cultures from intramuscular (IM) adipose tissue; assay: GPDH activity in heterogeneous bovine IM preadipocytes, 12 day exposure with DEX (Example 4, FIG. 3)
Method: as §2, §3, §4, §5

CC(=O)Oc1ccccc1C(=O)O [Aspirin, aspirin]
GPDH activity, aspirin alone ([1]; IM preadipocytes, 500 μM, 12 days, alone): did not affect GPDH activity; also recorded: did not enhance GPDH activity | GPDH activity, aspirin in combination with DEX ([1]; IM preadipocytes, 500 μM, 12 days, with DEX): did not enhance GPDH activity | GPDH activity, aspirin alone ([2]; SC preadipocytes, 500 μM, 12 days, alone): did not affect GPDH activity; also recorded: did not enhance GPDH activity | GPDH activity, aspirin in combination with DEX ([2]; SC preadipocytes, 500 μM, 12 days, with DEX): did not enhance GPDH activity

CC(C)Cc1ccc(C(C)C(=O)O)cc1 (centres unmarked) [IBU, 2-(p-isobutylphenyl)propionic acid]
GPDH activity versus control ([1]; IM cells, 1000 μM IBU, 12 days, absence of DEX, P=0.003): higher than control | maximum induction of GPDH activity ([1]; IM cells, IBU, 12 days, absence of DEX): 12 fold over control | GPDH activity versus control ([1]; IM preadipocytes, 500 μM IBU, 12 days, absence of DEX): enhanced GPDH | effect of IBU on DEX stimulation of GPDH activity [3]: did not enhance DEX stimulation of GPDH activity | effect of IBU on DEX induction of differentiation (GPDH) ([4]; SC cells, 100 μM IBU): enhanced DEX induction of differentiation | effect of IBU on DEX stimulation of GPDH ([4]; SC preadipocytes, 1000 μM IBU): reduced DEX stimulation of GPDH | effect of IBU on DEX stimulation of GPDH activity ([5]; 1000 μM IBU): enhanced DEX stimulation of GPDH activity | effect of IBU on DEX stimulation of GPDH activity ([5]; 2000 μM IBU): enhanced DEX stimulation of GPDH activity | effect of IBU on DEX induction of differentiation (GPDH) ([6]; 100 μM IBU): enhanced DEX induction of differentiation | effect of IBU on DEX induction of differentiation (GPDH) ([6]; 500 μM IBU): enhanced DEX induction of differentiation | maximum induction of GPDH activity ([2]; SC cells, IBU, 12 days, absence of DEX): 1.7 fold over control | GPDH activity versus control ([2]; SC preadipocytes, 10 μM IBU, 12 days, absence of DEX): enhanced GPDH activity | GPDH activity versus control ([2]; SC preadipocytes, 100 μM IBU, 12 days, absence of DEX): enhanced GPDH activity | GPDH activity versus control ([2]; SC preadipocytes, 500 μM IBU, 12 days, absence of DEX): enhanced GPDH activity

COc1ccc2c(c1)c(CC(=O)O)c(C)n2C(=O)c1ccc(Cl)cc1 [Indomethacin, indomethacin]
toxicity to cells ([1]; IM preadipocytes, 500 μM, up to 12 days): toxic to cells | toxicity to cells ([2]; SC preadipocytes, 500 μM, up to 12 days): toxic to cells
